The test system of the assay is Plasmodium berghei. Kind of assay: Luciferase/luciferin-expressing antifolate-resistant parasites were used to infect a culture of HepG2 cells that were pre-incubated with compounds. Infected hepatocytes emit light due to the luciferase reaction. Assay results are presented as the percent inhibition of light emission compared to control. […]. The format is functional. The settings on record: sporozoite; for IC90: read-out: LUCIFERASE INFECTION ASSAY - IC90.

Setting [1] is: read-out: LUCIFERASE INFECTION ASSAY - IC50.

Bounds are passed on as bounds.

For the molecule `FC(F)(F)c1cc(NCc2ccccc2Cl)nc(-c2ccccn2)n1`, the IC90 (commonly the concentration needed for an effect of 90%) amounted to 6.29 µM. Further, the IC50 (in general, the concentration that inhibits the measured activity by half) (PBLUC_HILL_SLOPE 3.68, PBLUC_R_SQUARED 0.577, read-out: LUCIFERASE INFECTION ASSAY - IC50) stood at 3.46 µM.
As to `CN(C)c1ccc(-c2nccc3n[nH]c(-c4cccc(OC(F)(F)F)c4)c23)cc1`, the IC90 is more than 10 µM. Besides, under setting [1], the 50% inhibitory concentration (IC50) was more than 10 µM.
Regarding `C(=N\c1ccccc1-n1cccc1)/c1cnc(-c2ccccc2)[nH]1`, the IC90 is more than 10.6 µM. The IC50 (PBLUC_HILL_SLOPE 8.03, PBLUC_R_SQUARED 0.709, read-out: LUCIFERASE INFECTION ASSAY - IC50) is more than 10.6 µM.
Consider `CN(C)CCNC(=O)c1ccc(-c2cn3c(-c4cccs4)cnc3cn2)cc1`, for which the IC90 was more than 8.43 µM. In addition, for the setting “HEPG2TOX_HILL_SLOPE 7.97, HEPG2TOX_R_SQUARED 0.151, read-out: LUCIFERASE INFECTION ASSAY - IC50”, the IC50 is more than 8.43 µM.
Turning to `CN1CCCN(C(=O)CCNC(=O)/C=C/c2ccco2)c2nc3ccccc3nc21`, the IC90 was more than 10 µM. Besides, the IC50 (PBLUC_HILL_SLOPE 1.1, PBLUC_R_SQUARED 0.699, read-out: LUCIFERASE INFECTION ASSAY - IC50) was found to be 1.78 µM.
Turning to `O=C(Nc1ccc(-n2nncc2-c2ccccc2)cc1)c1ccc(S(=O)(=O)N2CCCCC2)cc1`, the IC90 came out at 9.56 µM. Further, the IC50 (FFLUC_HILL_SLOPE 38.4, FFLUC_R_SQUARED 0.244, HEPG2TOX_HILL_SLOPE 8, HEPG2TOX_R_SQUARED 0.798, PBLUC_HILL_SLOPE 2.57, PBLUC_R_SQUARED 0.825, read-out: LUCIFERASE INFECTION ASSAY - IC50) was found to be 4.06 µM.
For the molecule `CC(CNC(=O)C1(C)CC1(Cl)Cl)N(C)c1ccccc1` (stereo unspecified), the IC90 is more than 10 µM. Further, the IC50 under setting [1] was more than 10 µM.
Regarding `COc1ccccc1CNc1ncnc2scc(-c3ccccc3)c12`, the IC90 is more than 10 µM. The IC50 (PBLUC_HILL_SLOPE 3.56, PBLUC_R_SQUARED 0.13, read-out: LUCIFERASE INFECTION ASSAY - IC50) turned out to be 5.66 µM.
On to `Cc1nccn1Cc1cccc(CNC(=O)/C=C/c2cccc(Cl)c2Cl)c1`, for which the IC90 is more than 10 µM. Moreover, the IC50 under setting [1] was more than 10 µM.
With `Cn1cc(C(=O)Nc2ccc(-c3nc4ccccc4[nH]3)cc2)c(-c2ccc3c(c2)OCCCO3)n1`, the IC90 turned out to be 4.31 µM. The IC50 (HEPG2TOX_HILL_SLOPE 2.56, HEPG2TOX_R_SQUARED 0.953, PBLUC_HILL_SLOPE 7.83, PBLUC_R_SQUARED 0.745, read-out: LUCIFERASE INFECTION ASSAY - IC50) amounted to 3.25 µM.
Turning to `O=C(Nc1ccccc1C(=O)OCC(=O)N1c2ccccc2Sc2ccccc21)c1ccco1`, the IC90 was more than 10 µM. The IC50 (FFLUC_HILL_SLOPE 10.6, FFLUC_R_SQUARED 0.388, PBLUC_HILL_SLOPE 2.08, PBLUC_R_SQUARED 0.607, read-out: LUCIFERASE INFECTION ASSAY - IC50) worked out at 7.58 µM.
For `FC(F)(F)Oc1ccc(Nc2cc3[nH]c(-c4ccccn4)cc3cn2)cc1`, the IC90 is 5.04 µM. Also, where the note is “HEPG2TOX_HILL_SLOPE 10.1, HEPG2TOX_R_SQUARED 0.985, PBLUC_HILL_SLOPE 7.97, PBLUC_R_SQUARED 0.35, read-out: LUCIFERASE INFECTION ASSAY - IC50”, the IC50 was determined as 3.82 µM.
As for `COc1ccc(NC(C)=O)cc1Nc1nc(C(F)(F)F)nc2ccccc12`, the IC90 is more than 10 µM. Also, the IC50 (HEPG2TOX_HILL_SLOPE 9.23, HEPG2TOX_R_SQUARED 0.863, PBLUC_HILL_SLOPE 3.13, PBLUC_R_SQUARED 0.379, read-out: LUCIFERASE INFECTION ASSAY - IC50) amounted to 6.22 µM.
Turning to `CCCCNC(=O)Nc1ccn(C)n1`, the IC90 is more than 16.8 µM. In addition, under setting [1], the IC50 was more than 16.8 µM.
Take `CN(Cc1ccc2c(c1)OCO2)c1ccc(C(=O)NC2CC2)cn1`: the IC90 is more than 10 µM. In addition, the IC50 (PBLUC_HILL_SLOPE 3.82, PBLUC_R_SQUARED 0.17, read-out: LUCIFERASE INFECTION ASSAY - IC50) turned out to be 6.72 µM.
On to `COc1ccc(-c2nc(NC(=O)c3cnc(C)cn3)sc2C)cc1`, for which the IC90 is more than 10 µM. For the same molecule, the IC50 under setting [1] is more than 10 µM.
Turning to `Cc1cccc(N2CCN(C(=O)/C=C/c3cnn(-c4ccccc4)c3)CC2)c1`, the IC90 is more than 10 µM. The IC50 under setting [1] is more than 10 µM.
As for `N#Cc1ccccc1OC(=O)Nc1ccc(SC(F)(F)F)cc1`, the IC90 turned out to be 1.82 µM. Besides, the IC50 (HEPG2TOX_HILL_SLOPE 3.54, HEPG2TOX_R_SQUARED 0.941, PBLUC_HILL_SLOPE 4.88, PBLUC_R_SQUARED 0.753, read-out: LUCIFERASE INFECTION ASSAY - IC50) was determined as 1.16 µM.
Take `O=C(/C=c1/[nH]c(=O)/c(=C/c2ccc(-c3ccccc3F)s2)s1)c1ccncc1`: the IC90 is more than 10 µM. Also, the IC50 (FFLUC_HILL_SLOPE 1.61, FFLUC_R_SQUARED 0.374, read-out: LUCIFERASE INFECTION ASSAY - IC50) is more than 10 µM.
For the molecule `CCN1CCCC1CNCC(=O)Nc1cc(Cl)ccc1C#N` (stereo unspecified), the IC90 is more than 10 µM. Further, under setting [1], the IC50 is more than 10 µM.
Take `CC(C)(C)NCc1cc(Cl)ccc1OCc1ccccc1F`: the IC90 was more than 9.21 µM. Also, the IC50 (PBLUC_HILL_SLOPE 1.1, PBLUC_R_SQUARED 0.254, read-out: LUCIFERASE INFECTION ASSAY - IC50) came out at 4.67 µM.
With `Cc1cccc(/C=C2\CC(C#N)(c3ccccc3)C/C(=C\c3cccc(C)c3)C2=O)c1` (stereo unspecified), the IC90 was more than 10 µM. Moreover, the IC50 (PBLUC_HILL_SLOPE 1.76, PBLUC_R_SQUARED 0.46, read-out: LUCIFERASE INFECTION ASSAY - IC50) was 9.05 µM.
Regarding `Cc1cccc(/C=C(\c2nc3ccccc3[nH]2)S(=O)(=O)c2ccccc2)c1`, the IC90 stood at 2.31 µM. Moreover, the IC50 (HEPG2TOX_HILL_SLOPE 1.77, HEPG2TOX_R_SQUARED 0.525, PBLUC_HILL_SLOPE 7.51, 3.20, PBLUC_R_SQUARED 0.576, 0.706, read-out: LUCIFERASE INFECTION ASSAY - IC50) turned out to be 1.36 µM.
With `Cc1cc(C)c(NC(=O)c2cc(C)on2)c(C)c1`, the IC90 is more than 10 µM. Under “HEPG2TOX_HILL_SLOPE 17.1, HEPG2TOX_R_SQUARED 0.826, PBLUC_HILL_SLOPE 16.1, PBLUC_R_SQUARED 0.022, read-out: LUCIFERASE INFECTION ASSAY - IC50”, the IC50 came out at 9.8 µM.
In the case of `O=C(NCc1cccs1)C1Cc2c(-c3ccccc3)ccnc2O1` (stereo unspecified), the IC90 was determined as 6.65 µM. The IC50 (HEPG2TOX_HILL_SLOPE 2.36, HEPG2TOX_R_SQUARED 0.977, PBLUC_HILL_SLOPE 2.08, PBLUC_R_SQUARED 0.632, read-out: LUCIFERASE INFECTION ASSAY - IC50) amounted to 2.31 µM.
For `COc1ccc2nc3cc(Cl)ccc3c(N(C)CCc3ccc(OC)c(OC)c3)c2c1`, the IC90 is 0.33 µM. The IC50 (PBLUC_HILL_SLOPE 4.42, PBLUC_R_SQUARED 0.447, read-out: LUCIFERASE INFECTION ASSAY - IC50) is 0.201 µM.
As for `Cc1c(C(=O)c2ccccc2)oc2ccc(NC(=O)c3ccco3)cc12`, the IC90 was more than 9.56 µM. Also, the IC50 (PBLUC_HILL_SLOPE 11.9, PBLUC_R_SQUARED 0.0568, read-out: LUCIFERASE INFECTION ASSAY - IC50) is more than 9.56 µM.
For `Clc1ccc(-c2cn3c(-c4ccc5c(c4)OCO5)cnc3cn2)cc1`, the IC90 was 6.85 µM. For the same molecule, the IC50 (HEPG2TOX_HILL_SLOPE 1.51, HEPG2TOX_R_SQUARED 0.989, PBLUC_HILL_SLOPE 1.79, PBLUC_R_SQUARED 0.647, read-out: LUCIFERASE INFECTION ASSAY - IC50) turned out to be 2.01 µM.
`Cc1cc(OCC(=O)NCCc2c(C)cc(C(C)(C)C)cc2C)no1`: the IC90 worked out at 6.12 µM. Under “PBLUC_HILL_SLOPE 10.6, 8.08, PBLUC_R_SQUARED 0.262, 0.836, read-out: LUCIFERASE INFECTION ASSAY - IC50”, the IC50 amounted to 4.78 µM.
Take `Cc1cccc(-c2cn3c(-c4cccc(C(=O)N5CCN(C)CC5)c4)cnc3cn2)c1C`: the IC90 came out at 3 µM. Further, the IC50 (PBLUC_HILL_SLOPE 16.5, PBLUC_R_SQUARED 0.755, read-out: LUCIFERASE INFECTION ASSAY - IC50) is 2.63 µM.
Regarding `COc1cc(OC)c2c(-c3ccccc3)cc(SCC(=O)N(C)C3CCS(=O)(=O)C3)nc2c1` (stereo unspecified), the IC90 is more than 10 µM. Besides, the IC50 under setting [1] is more than 10 µM.
Consider `Cc1c(-c2ccccc2)oc2c(C(=O)Nc3ccc(N4CCOCC4)c4ccncc34)cccc2c1=O`, for which the IC90 was more than 10 µM. The IC50 (PBLUC_HILL_SLOPE 15.7, PBLUC_R_SQUARED 0.205, read-out: LUCIFERASE INFECTION ASSAY - IC50) was determined as 9.81 µM.
On to `Cc1sc2ncnc(Sc3nnc(C(F)(F)F)n3C)c2c1C`, for which the IC90 is more than 10 µM. Further, under setting [1], the IC50 was more than 10 µM.
`COc1cc(NC(=O)C(C)(C)n2cc(-c3ccc(OCCN4CCCC4)cc3)cn2)cc(OC)c1`: the concentration for an effect of 90% (IC90) was more than 10 µM. The IC50 under setting [1] is more than 10 µM.
With `CN(Cc1ccc(Cl)cc1Cl)C(=O)c1ccc(NC(=O)C2CC2)cc1`, the IC90 is more than 10 µM. In addition, where the note is “FFLUC_HILL_SLOPE 0.429, FFLUC_R_SQUARED 0.32, PBLUC_HILL_SLOPE 3.47, PBLUC_R_SQUARED 0.753, read-out: LUCIFERASE INFECTION ASSAY - IC50”, the IC50 came to 6.88 µM.
For `O=C(CN1C(=O)NC2(CCCCC2)C1=O)NC1CCS(=O)(=O)C1` (stereo unspecified), the IC90 is more than 10 µM. Under setting [1], the IC50 is more than 10 µM.
In the case of `COc1ccc(OC)c(S(=O)(=O)Nc2ccc(S(=O)(=O)Nc3cc(C(F)(F)F)cc(C(F)(F)F)c3)cc2)c1`, the IC90 is more than 5.65 µM. In addition, the IC50 under setting [1] was more than 5.65 µM.
On to `O=C(c1cnn(C(=O)c2nn(-c3ccc(Cl)cc3)cc2O)c1)c1ccccc1O`, for which the IC90 was determined as 3.83 µM. The IC50 (HEPG2TOX_HILL_SLOPE 0.890, 1.11, HEPG2TOX_R_SQUARED 0.813, 0.357, PBLUC_HILL_SLOPE 9.04, 15.6, PBLUC_R_SQUARED 0.0255, 0.659, read-out: LUCIFERASE INFECTION ASSAY - IC50) was 3.15 µM.

For the origin of these results see ChEMBL document CHEMBL4483862, “Open-source discovery of chemical leads for next-generation chemoprotective antimalarials” (2018).
